In publication PMC7943729, “Cell-Free DNA Promotes Thrombin Autolysis and Generation of Thrombin-Derived C-Terminal Fragments” (Frontiers in Immunology, 2021):

What was measured:
human thrombin [1] = target: T1, human thrombin (Homo sapiens, UniProt P00734); test: Thrombin autolysis determination by western blot; assay type: biochemical
T1 construct: purchased Innovative Research USA
Procedure: 10 µl of citrate plasma was added to increasing concentration of DNA (6.25, 12.5, 25, and 50 µg/ml) resuspended in 10 mM Tris, pH 7.4 (total volume of 20 µl). Following an hour pre-incubation at 37 °C, 2.5 mM CaCl2 was added to samples and further incubated for 1 hour at 37 °C. After incubation, samples were boiled for 15 min with sample buffer and were analyzed by SDS-PAGE using Novex 10–20% Tris Tricine precast gels. Post electrophoresis, the gel was transferred to a PVDF membrane and blocked with 5% milk for an hour before western blotting. For detection of C-terminal thrombin fragments, overnight incubation of the blots was performed with polyclonal antibodies recognizing the thrombin C-terminal peptide VFR17 ([…]) in 1:5,000 dilution at 4 °C. […]
DNA dependent thrombin autolysis was analyzed by incubating 0.4 µg of human thrombin (Innovative Research USA) in the presence or absence of equal weight ratio (1:1) of DNA in a total volume of 10 µl for different time points (1, 2, 4, and 6 h). […] Thrombin autolysis inhibition was analyzed using 0.4 µg of heat inactivated thrombin (preboiled for 10 mins at 95 °C) incubated with equal weight ratio (1:1) of DNA for extended time of 6 h. […] In all cases, after the incubation at 37 °C, samples were boiled for 10 min in sample buffer and analyzed by western blotting as mentioned above.

genomic DNA = test: DNA gel shift assay (agarose gel mobility shift); assay type: binding, human; settings: 200 ng gDNA (20 µg/ml), 10-200 ng protein or peptide, 10 mM Tris pH 7.4, 1 h 37 °C, 0.8% agarose gel, SYBR Safe; n = 3
Procedure: The DNA used for agarose gel and western blot analysis was extracted from cultured human keratinocytes (HaCaT) cells using E.Z.N.A. DNA/RNA Isolation kit (Omega Bio-Tek USA) or E. coli DH5α plasmid DNA (pUC19) using Qiagen plasmid purification kits (Qiagen USA) according to the manufacturer’s protocol.
Following this, the samples were analyzed by gel electrophoresis on a 0.8% agarose (w/v) gel in 1X Tris acetate-EDTA (TAE) buffer with SYBR Safe and visualized with the ChemiDoc Imaging System (Bio-Rad, USA).

[2] = target: T2, human neutrophil elastase (Homo sapiens, UniProt P08246); test: Protease protection assay; assay type: in vitro ADME; settings: NE 1:30, 37 °C, western blot
T2 sequence (P08246 30-267): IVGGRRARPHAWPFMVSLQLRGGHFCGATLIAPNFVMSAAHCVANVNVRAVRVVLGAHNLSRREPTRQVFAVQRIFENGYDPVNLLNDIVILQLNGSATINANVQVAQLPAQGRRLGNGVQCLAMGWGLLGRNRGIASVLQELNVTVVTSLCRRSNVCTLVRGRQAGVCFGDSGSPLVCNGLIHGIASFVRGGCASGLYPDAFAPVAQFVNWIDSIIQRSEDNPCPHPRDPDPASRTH
Procedure: Thrombin or GKY25 (0.4 µg) was incubated with DNA (w/w ratio = 1:1) in 10 mM Tris, pH 7.4 for 4 h, followed by addition of neutrophil elastase at enzyme: substrate ratio of 1:30 and incubated for various time points (1, 2, and 3 h). Post incubation, samples were boiled for 3 min to inhibit the reaction and further analyzed by Tricine SDS-PAGE as described above.

human thrombin [3] = target: T1, human thrombin; settings: thrombin autolysis without DNA; cited from earlier work
Description: Previous studies have shown that the rate of autolysis increases with concentration of thrombin, pH, temperature and concentration of monovalent cations ([31], [32]).

heparin
induction of thrombin fragmentation / TCP formation (human thrombin [1]; 0.4 µg human thrombin, 37 °C, western blot with anti-VFR17, DNA 1:1 for 1-6 h, NETs 4 h, heparin 1:0.5 and 1:1 for 1 h): did not induce thrombin fragmentation or TCP formation

thrombin
amount giving complete retardation of DNA (genomic DNA): ≥ 160 ng
amount giving reduced DNA migration (genomic DNA): 40 ng
thrombin fragments after neutrophil elastase in the presence of DNA ([2]; 0.4 µg thrombin with gDNA 1:1 w/w, increasing incubation time 60-180 min): a higher signal intensity of the 3 kDa TCP
cleavage of thrombin by neutrophil elastase without DNA ([2]; 0.4 µg thrombin, control lanes without DNA, 60-180 min): cleaved thrombin to release multiple TCPs
time for complete autolytic conversion to γ-thrombin (human thrombin [3]): ~144 h

O=S(=O)(F)Cc1ccccc1 [PMSF]
inhibition of DNA-induced TCP formation (human thrombin [1]; 0.4 µg thrombin, DNA 1:1 w/w, 4 h 37 °C, PMSF 1 mM, protease inhibitor cocktail 1X): abrogated the formation of TCPs
